According to patent US20030088057A1, “PEPTIDE SUBSTRATES PHOSPHORYLATED BY P21-ACTIVAGED PROTEIN KINASE STATEMENT REGARDING FEDERALLY SPONSORED REASEARCH OR DEVELOPMENT” (priority 1998, published 2003):
No end group written: not given here.

Key:
γ-PAK [1] = experiment: Rates of phosphorylation of synthetic peptides by γ-PAK; format: biochemical, rabbit
Description: (§1) A. Materials. γ-PAK was purified from rabbit reticulocytes to apparent homogeneity by chromatography on DEAE-cellulose, SP-Sepharose, protamine agarose, and FPLC on Mono S and Mono Q. Histone I (type IIIS), mixed histone (type IIAS), trypsin (L-1-tosylamido-2-phenylethyl chloromethyl ketone treated), soybean trypsin inhibitor, bovine serum albumin (fatty acid free), and myelin basic protein were purchased from Sigma. Purified histones 2B and 4 were purchased from Boehringer-Mannheim. Myosin light chain from rabbit skeletal muscle was a gift from Dr. James Stull, University of Texas Southwestern Medical Center, Dallas, Tex.; rat prolactin was provided by Dr. Ameae Walker, University of California, Riverside, Calif.; and the purified catalytic subunit of cAMP-dependent protein kinase from bovine heart was a gift from Dr. William H. Fletcher, J. L. Pettis Memorial V. A. Hospital, Loma Linda, Calif. Protein kinase C was purified from bovine brain according to the procedure of Walton et al. [Walton, G. M., et al., Anal Biochem., 161:425-437 (1987)], with modifications [Venema, R. C., et al., J. Biol. Chem., 266:5298-5302 (1991)]. The clone for GST-Cdc42 was generously provided by Dr. Channing Der, University of North Carolina, Chapel Hill, N.C. Cellulose thin-layer chromatography sheets were from Kodak.
D. Phosphorylation Assays. Phosphorylation of protein substrates was carried out in 35 μL reaction mixtures containing 20 mM Tris-HCl, pH 7.4, 10 mM MgCl2, 30 mM 2-mercaptoethanol, 0.2 mM ATP (specific activity =1000 cpm/pmol), 2 μg of protein substrate, and 20 units of active γ-PAK (an enzyme unit is defined as the amount of enzyme that incorporates 1 pmol of phosphate into histone IIAS/ min at 30°. Under these conditions, phosphate incorporation was linear and initial rates of phosphorylation were measured. After incubation at 30° C. for 15 min, reactions were terminated by the addition of 5 μL of 100 mM nonlabeled ATP and sample buffer for gel electrophoresis [Hathaway, G. M., et al., Methods Enzymol., 60:495-511 (1979)]. Reaction mixtures were subjected to SDS-PAGE on 15% polyacrylamide gels followed by autoradiography. Phosphorylation was quantified by excising the protein band and counting the incorporated ^32P in a liquid scintillation counter. The specific activity of γ-PAK was 400 pmol min^−1 μg^−1 as reported previously using 0.2 mM ATP and 1 mg/mL mixed histone as substrate [Rooney, R. D., et al., (1996), supra].
(§2) Assays with peptides (I mM) were carried out with γ-PAK (1.6-5.6 units) in 25 μL reaction mixtures incubated for 30 min at 30° C. under conditions described above, except that 0.4 mg/mL of bovine serum albumin was added and the specific activity of ATP was 300-2000 cpm/pmol. Reactions were terminated with 5 μL of 100 mM ATP, and the amount of ^32p incorporated was quantitated by precipitation of 20 μL aliquots on P81 phosphocellulose paper with 75 mM H3PO4 as described previously [Bensen, E. S., et al., Biochim. Biophys. Acta, 1292:249-258 (1996)]. Peptides containing only one basic amino acid were analyzed by thin-layer electrophoresis on cellulose sheets for 2 h at 600 V with pyridine/acetic acid/water (10:100:890), pH 3.5, as solvent, as described previously [Bensen, E. S., et al., supra]. Activation of γ-PAK by autophosphorylation in the presence of Cdc42(GTPγS) was performed as previously described [Jakobi, R., et al., supra]. γ-PAK was also activated by limited digestion with trypsin as described previously [Rooney, R. D., et al., (1996), supra].

γ-PAK [2] = experiment: Kinetic parameters (Km, Vmax) for phosphorylation of synthetic peptides by γ-PAK; format: biochemical, rabbit
Method: as §2

PKC = experiment: Rates of phosphorylation of synthetic peptides by PKC; format: biochemical, bovine
Description: as §1
(§3) Reactions with PKA (10.5 units) were carried out under the same conditions as with γ-PAK except that 0.14 mM ATP was used. Reactions with PKC (3.4 units) were performed as with PKA, with the addition of 0.4 mM CaCl2, phosphatidylinositol (15 μg/mL), phosphatidylserine (15 μg/ mL), and 1,2-diolein (3 μg/mL), as described [Tuazon, P. T., et al., (1989), supra]. A unit of PKA or PKC is defined as the amount of enzyme that incorporates 1 pmol of phosphate/min at 30° C. into histone IIAS or histone 1, respectively.
PKA and PKC are known to require basic amino acids on the N-terminal side of the phosphorylatable serine/ threonine. To distinguish their substrate specificities from that of γ-PAK, the relative rates of phosphorylation were determined with the synthetic peptide substrates using the conditions for γ-PAK, with the addition of Ca^2+ and phospholipids for PKC. The rates shown in Table 5 are calculated with equivalent units of enzyme; the rate of phosphorylation of the peptide AKRASAA (SEQ ID NO:6) is taken as 100% for all three enzymes. As would be expected, PKA preferentially phosphorylated the peptides that contained RR or RK at the −3 and −2 positions and with […] residues or proline at the −4 and −1 positions inhibitory. PKC recognized SKR>RKS>KKS. The most notable difference between γ-PAK and PKA or PKC is the effect of acidic residues on the susceptibility of the peptide to be phosphorylated. An acidic residue in the −1 or −4 position was beneficial for γ-PAK but was detrimental for both PKA and PKC (Table 5). […] In addition, γ-PAK could not tolerate an arginine in the −3 position when lysine was in the −2 position.

PKA = target: T1, PKA (Bos taurus, UniProt P00517); experiment: Rates of phosphorylation of synthetic peptides by PKA; format: biochemical, bovine
T1 construct: the purified catalytic subunit of cAMP-dependent protein kinase from bovine heart was a gift; from tissue; host or cells: bovine heart (gift from Dr. William H. Fletcher)
Description: as §1, with “Myosin light chain from rabbit skeletal muscle was a gift from Dr. James Stull, University of Texas Southwestern Medical Center, Dallas, Tex.; rat prolactin was provided by Dr. Ameae Walker, University of California, Riverside, Calif.; and the purified catalytic subunit of cAMP-dependent protein kinase from bovine heart was a gift from Dr. William H. Fletcher, J. L. Pettis Memorial V. A. Hospital, Loma Linda, Calif.” left out
as §3
PKA and PKC are known to require basic amino acids on the N-terminal side of the phosphorylatable serine/ threonine. To distinguish their substrate specificities from that of γ-PAK, the relative rates of phosphorylation were determined with the synthetic peptide substrates using the conditions for γ-PAK, with the addition of Ca^2+ and phospholipids for PKC.

γ-PAK [3] = target: T2, γ-PAK (Oryctolagus cuniculus, UniProt Q29502); experiment: Phosphorylation of heptapeptides by Cdc42-activated γ-PAK with ATP(Mg) and ATP(Mn); format: biochemical, rabbit; settings: γ-PAK 2.5 units, Cdc42(GTPγS)-activated; 10 mM MgCl2 or 6 mM MnCl2
T2 construct: γ-PAK was purified from rabbit reticulocytes to apparent homogeneity; from tissue; host or cells: rabbit reticulocytes (γ-PAK)
T2 sequence (Q29502 2-524 limits assumed): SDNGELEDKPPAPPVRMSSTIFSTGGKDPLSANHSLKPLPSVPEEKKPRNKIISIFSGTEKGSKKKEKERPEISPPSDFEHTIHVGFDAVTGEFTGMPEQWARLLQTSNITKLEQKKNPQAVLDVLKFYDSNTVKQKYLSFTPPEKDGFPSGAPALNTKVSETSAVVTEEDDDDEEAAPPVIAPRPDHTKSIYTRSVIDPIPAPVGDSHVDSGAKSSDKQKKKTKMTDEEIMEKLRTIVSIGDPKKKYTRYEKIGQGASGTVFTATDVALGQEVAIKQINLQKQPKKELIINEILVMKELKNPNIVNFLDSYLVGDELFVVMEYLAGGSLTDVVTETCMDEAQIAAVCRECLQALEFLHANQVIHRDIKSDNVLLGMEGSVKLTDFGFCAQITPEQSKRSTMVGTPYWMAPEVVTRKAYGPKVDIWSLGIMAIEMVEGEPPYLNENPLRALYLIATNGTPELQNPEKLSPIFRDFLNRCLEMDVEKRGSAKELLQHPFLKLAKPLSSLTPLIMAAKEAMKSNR
Method: Synthetic heptapeptides were used to examine the activity of γ-PAK with manganese and magnesium. The peptides were incubated with γ-PAK (2.5 units), activated by autophosphorylation in the presence of Cdc42(GTPγS) and 10 mM MgCl2 or 6 mM MnCl2 as described under Experimental Procedures.

Sequence of γ-PAK (Q29502 249-500 limits assumed): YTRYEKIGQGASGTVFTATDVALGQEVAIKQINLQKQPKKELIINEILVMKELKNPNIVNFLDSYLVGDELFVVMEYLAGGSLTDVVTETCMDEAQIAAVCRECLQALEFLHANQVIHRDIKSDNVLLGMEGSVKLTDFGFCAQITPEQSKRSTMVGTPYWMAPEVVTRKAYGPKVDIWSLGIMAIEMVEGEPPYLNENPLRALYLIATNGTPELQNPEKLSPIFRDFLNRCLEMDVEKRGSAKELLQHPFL

For “AKRESAA (AKRESAA-NH2) [synthetic peptide with an amide C-terminal group]”, the “rel rate (%)” value (γ-PAK [1]; Cdc42(GTPγS)-activated γ-PAK, peptide 1 mM, KKRKSAA = 100) was 295%, the “rel rate (%)” value (γ-PAK [1]; proteolytically (trypsin) activated γ-PAK, peptide 1 mM, compared to KKRKSAA = 100) was 247% and the 32P incorporated (γ-PAK [1]; proteolytically activated γ-PAK (5.6 units), peptide 1 mM, 30 min at 30° C.) was 750 pmol/min/µg. The “32P incorporated, %” value (γ-PAK [1]; γ-PAK, AKRASAA taken as 100%) was 176%, the 32P incorporated (γ-PAK [1]; γ-PAK, calculated with equivalent units of enzyme) was 47.2 pmol/unit and the “rate of phosphorylation compared to AKRASAA” value (γ-PAK [1]; γ-PAK, relative to AKRASAA) was 175%. The “increase of Km compared to AKRASAA” value (γ-PAK [2]) was ~3 fold, the “increase of Vmax compared to AKRASAA” value (γ-PAK [2]) was 6 fold and the “overall rate of phosphorylation (Vmax/Km) compared to AKRASAA” value (γ-PAK [2]) was ~2.2 fold. For the same substance, the Vmax (γ-PAK [2]; Table 3, influence of acidic amino acids) was 6.62 pmol/min, the Km (γ-PAK [2]; Table 3, influence of acidic amino acids, read-out: Km) was 1350 µM and the Vmax (γ-PAK [2]; text summary b32) was 6.62 pmol/min. For the same substance, the 32P incorporated (PKC; PKC (3.4 units), with Ca2+ and phospholipids, 0.14 mM ATP) was 0.4 pmol/unit, the “32P incorporated, %” value (PKC; PKC, AKRASAA taken as 100%) was 12% and the 32P incorporated (PKA; PKA (10.5 units), 0.14 mM ATP) was 1.8 pmol/unit. The “32P incorporated, %” value (PKA; PKA, AKRASAA taken as 100%) was 38% and the “phosphorylation using ATP(Mg) or ATP(Mn) (in words)” value (γ-PAK [3]) was “good substrates”.
